According to US20260042764A1, “COMPOSITIONS AND METHODS FOR INHIBITION OF KRAS” (TheRas, Inc., priority 2022, published 2026):

What was measured:
[1] = target: T1, Avi-KRAS G12C (2-169) GTP/RAF1 RBD-3xFLAG (51-131) (Homo sapiens, UniProt P01116, G12C); experiment: Raf1-KRAS G12C-GTP disruption HTRF assay (Biological Example 3); format: binding; settings: KRAS G12C, GTP-loaded
T1 construct: Avi-KRAS G12C (2-169)
Method in brief: (§1)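 HTRF PPI read-out (ex 320 nm, em 615 nm) after 1 h RT incubation with shaking; data as % activity vs DMSO (100%), IC50 from curve fit. Complex 50 nM, RBD reagent 75 nM; compound 30-0.005 μM, 3-fold.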

[2] = target: T2, Avi-KRAS G12V (2-169) GTP/RAF1 RBD-3xFLAG (51-131) (Homo sapiens, UniProt P01116, G12V); experiment: Raf1-KRAS G12V-GTP disruption HTRF assay (Biological Example 3); format: binding; settings: KRAS G12V, GTP-loaded
T2 construct: Avi-KRAS G12V (2-169)
Method in brief: as §1

[3] = test system: GP2d cells (KRAS G12D); experiment: Cell-based pERK HTRF assay in GP2d cell (Biological Example 2); settings: GP2d, GP2d (KRAS G12D) cells
Method in brief: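 60 min compound, 0.25% DMSO, 9-pt half-log curve from 1 μM or 100 nM; DMEM/10% FBS.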

[4] = test system: SW620 cells (KRAS G12V); experiment: Cell-based pERK HTRF assay in SW620 cell (Biological Example 4); settings: Homo sapiens, SW-620, SW620 (KRAS G12V) cells
Method in brief: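 Read-out: HTRF pERK signal (excitation 320 nm, emission 615 nm) from lysates of SW620 cells after 4 h compound exposure. Dose range was 9 points, half-log steps from 1 μM, in 0.25% DMSO; antibody incubation ran 4–24 h at room temperature.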

[5] = target: T3, Avi-KRAS G12D (2-169) GTP/RAF1 RBD-3xFLAG (51-131) (Homo sapiens, UniProt P01116, G12D); experiment: Raf1-KRAS G12D-GTP disruption HTRF assay (Biological Example 3); format: binding; settings: KRAS G12D, GTP-loaded
T3 construct: Avi-KRAS G12D (2-169)
Method in brief: as §1

[6] = target: T4, Avi-KRAS WT (2-169) GTP/RAF1 RBD-3xFLAG (51-131) (Homo sapiens, UniProt P01116); experiment: Raf1-KRAS WT-GTP disruption HTRF assay (Biological Example 3); format: binding; settings: KRAS WT, GTP-loaded
T4 construct: Avi-KRAS WT (2-169)
Method in brief: as §1

T1 sequence (P01116 2-169 isoform P01116-2 G12C): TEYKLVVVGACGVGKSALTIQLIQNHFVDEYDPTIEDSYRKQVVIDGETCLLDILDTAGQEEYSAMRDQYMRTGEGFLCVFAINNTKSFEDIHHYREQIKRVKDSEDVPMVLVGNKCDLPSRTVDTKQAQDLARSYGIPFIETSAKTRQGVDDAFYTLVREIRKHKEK
T4 sequence (P01116 2-169 isoform P01116-2): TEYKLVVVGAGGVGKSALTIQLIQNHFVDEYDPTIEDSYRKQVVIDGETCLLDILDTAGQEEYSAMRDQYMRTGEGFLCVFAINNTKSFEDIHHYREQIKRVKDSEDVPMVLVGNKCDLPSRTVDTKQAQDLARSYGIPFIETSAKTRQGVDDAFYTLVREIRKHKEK
T2 sequence (P01116 2-169 isoform P01116-2 G12V): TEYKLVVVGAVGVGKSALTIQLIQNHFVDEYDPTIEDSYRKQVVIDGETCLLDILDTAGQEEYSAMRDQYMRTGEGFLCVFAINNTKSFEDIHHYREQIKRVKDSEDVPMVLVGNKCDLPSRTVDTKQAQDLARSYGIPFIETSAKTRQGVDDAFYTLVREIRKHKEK
T3 sequence (P01116 2-169 isoform P01116-2 G12D): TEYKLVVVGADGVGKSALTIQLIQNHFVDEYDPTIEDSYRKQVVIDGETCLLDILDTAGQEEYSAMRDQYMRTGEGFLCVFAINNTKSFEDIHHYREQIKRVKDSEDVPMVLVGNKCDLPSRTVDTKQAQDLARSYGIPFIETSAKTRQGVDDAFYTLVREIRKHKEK

Structure (SMILES) | IC50 [1] [µM] | IC50 [2] [µM] | IC50 [3] [µM] | IC50 [4] [µM] | IC50 [5] [µM] | IC50 [6] [µM]
CCN(c1nc(OC[C@@]23CCCN2C[C@H](F)C3)nc2c(F)c(-c3ccc(F)c4sc(N)c(C#N)c34)c(C(F)(F)F)cc12)[C@H]1C[C@H]2C[C@H](C)C(=O)N2C1 (atropisomer, axis not shown) [Compound 891] | ≤ 0.1 | ≤ 0.1 | < 0.1 | < 0.1 | ≤ 0.1 | ≤ 0.1
CCN(c1nc(OC[C@@]23CCCN2C[C@H](F)C3)nc2c(F)c(-c3ccc(F)c4sc(N)c(C#N)c34)c(C(F)(F)F)cc12)[C@H]1CCN(C(=O)[C@@H]2C[C@H]2F)[C@@H]1C (atropisomer, axis not shown) [Compound 892] | 0.1 to 1 | 0.1 to 1 | < 0.1 | < 0.1 | 0.1 to 1 | 0.1 to 1
CCN(c1nc(OC[C@@]23CCCN2C[C@H](F)C3)nc2c(F)c(-c3ccc(F)c4sc(N)c(C#N)c34)c(C(F)(F)F)cc12)[C@H]1CC[C@](C)(C(=O)N(C)C)C1 (atropisomer, axis not shown) [Compound 894] | 1 to 10 | 1 to 10 | < 0.1 | < 0.1 | 1 to 10 | 1 to 10
CN(Cc1ccnnc1)c1nc(OC[C@@]23CCCN2C[C@H](F)C3)nc2c(F)c(-c3ccc(F)c4sc(N)c(C#N)c34)c(C(F)(F)F)cc12 (atropisomer, axis not shown) [Compound 896] | 1 to 10 | 1 to 10 | < 0.1 | < 0.1 | 0.1 to 1 | 1 to 10
CN(Cc1cncnc1)c1nc(OC[C@@]23CCCN2C[C@H](F)C3)nc2c(F)c(-c3ccc(F)c4sc(N)c(C#N)c34)c(C(F)(F)F)cc12 (atropisomer, axis not shown) [Compound 898] | 1 to 10 | 0.1 to 1 | < 0.1 | < 0.1 | 0.1 to 1 | 1 to 10
CCN(c1nc(OC[C@@]23CCCN2C[C@H](F)C3)nc2c(F)c(-c3ccc(F)c4sc(N)c(C#N)c34)c(C(F)(F)F)cc12)[C@H]1CCN(C(=O)c2coc(C)n2)[C@@H]1C (atropisomer, axis not shown) [Compound 899] | 0.1 to 1 | 0.1 to 1 | < 0.1 | < 0.1 | 0.1 to 1 | 0.1 to 1
CCN(c1nc(OC[C@@]23CCCN2C[C@H](F)C3)nc2c(F)c(-c3ccc(F)c4sc(N)c(C#N)c34)c(C(F)(F)F)cc12)[C@H]1CCN(C(=O)c2cocn2)[C@@H]1C (atropisomer, axis not shown) [Compound 900] | 0.1 to 1 | 0.1 to 1 | < 0.1 | < 0.1 | 0.1 to 1 | 0.1 to 1
CCN(c1nc(OC[C@@]23CCCN2C[C@H](F)C3)nc2c(F)c(-c3ccc(F)c4sc(N)c(C#N)c34)c(C(F)(F)F)cc12)[C@H]1CCN(C(=O)c2ncoc2C)C1 (atropisomer, axis not shown) [Compound 901] | 0.1 to 1 | 0.1 to 1 | < 0.1 | < 0.1 | 0.1 to 1 | 0.1 to 1
CCN(c1nc(OC[C@@]23CCCN2C[C@H](F)C3)nc2c(F)c(-c3ccc(F)c4sc(N)c(C#N)c34)c(C(F)(F)F)cc12)[C@H]1CCN(C(=O)c2cnc(C)s2)C1 (atropisomer, axis not shown) [Compound 902] | 0.1 to 1 | ≤ 0.1 | < 0.1 | < 0.1 | ≤ 0.1 | 0.1 to 1
CCN(c1nc(OC[C@@]23CCCN2C[C@H](F)C3)nc2c(F)c(-c3ccc(F)c4sc(N)c(C#N)c34)c(C(F)(F)F)cc12)[C@H]1CCN(C(=O)c2cnc(Cl)s2)C1 (atropisomer, axis not shown) [Compound 905] | 0.1 to 1 | 0.1 to 1 | < 0.1 | < 0.1 | 0.1 to 1 | 1 to 10
CCN(c1nc(OC[C@@]23CCCN2C[C@H](F)C3)nc2c(F)c(-c3ccc(F)c4sc(N)c(C#N)c34)c(C(F)(F)F)cc12)[C@H]1C[C@H]2[C@@H](C)N(C)C(=O)N2C1 (atropisomer, axis not shown) [Compound 910] | 0.1 to 1 | 0.1 to 1 | < 0.1 | < 0.1 | 0.1 to 1 | 0.1 to 1
CCN(c1nc(OC[C@@]23CCCN2C[C@H](F)C3)nc2c(F)c(-c3ccc(F)c4sc(N)c(C#N)c34)c(C(F)(F)F)cc12)[C@H]1CCN(C(=O)c2ccc(C)s2)C1 (atropisomer, axis not shown) [Compound 911] | 0.1 to 1 | 0.1 to 1 | < 0.1 | < 0.1 | 0.1 to 1 | 1 to 10
CCN(c1nc(OC[C@@]23CCCN2C[C@H](F)C3)nc2c(F)c(-c3ccc(F)c4sc(N)c(C#N)c34)c(C(F)(F)F)cc12)[C@H]1C[C@H](C)N(C(=O)c2cocn2)C1 (atropisomer, axis not shown) [Compound 914] | 0.1 to 1 | ≤ 0.1 | < 0.1 | < 0.1 | 0.1 to 1 | 0.1 to 1
CCN(c1nc(OC[C@@]23CCCN2C[C@H](F)C3)nc2c(F)c(-c3ccc(F)c4sc(N)c(C#N)c34)c(C(F)(F)F)cc12)[C@H]1C[C@H](C)N(C(=O)c2coc(C)n2)C1 (atropisomer, axis not shown) [Compound 915] | 0.1 to 1 | ≤ 0.1 | < 0.1 | < 0.1 | ≤ 0.1 | 0.1 to 1
CN(c1nc(OC[C@@]23CCCN2C[C@H](F)C3)nc2c(F)c(-c3ccc(F)c4sc(N)c(C#N)c34)c(C(F)(F)F)cc12)[C@H]1CC(=O)N2CCC[C@@H]12 (atropisomer, axis not shown) [Compound 916] | 0.1 to 1 | 0.1 to 1 | < 0.1 | < 0.1 | 0.1 to 1 | 0.1 to 1
CN(Cc1ccno1)c1nc(OC[C@@]23CCCN2C[C@H](F)C3)nc2c(F)c(-c3ccc(F)c4sc(N)c(C#N)c34)c(C(F)(F)F)cc12 (atropisomer, axis not shown) [Compound 917] | 1 to 10 | 0.1 to 1 | < 0.1 | < 0.1 | 0.1 to 1 | 1 to 10
CCN(c1nc(OC[C@@]23CCCN2C[C@H](F)C3)nc2c(F)c(-c3ccc(F)c4sc(N)c(C#N)c34)c(C(F)(F)F)cc12)[C@H]1CCN(C(=O)[C@@H]2CCO2)[C@@H]1C (atropisomer, axis not shown) [Compound 918] | ≤ 0.1 | ≤ 0.1 | < 0.1 | < 0.1 | ≤ 0.1 | ≤ 0.1
CCN(c1nc(OC[C@@]23CCCN2C[C@H](F)C3)nc2c(F)c(-c3ccc(F)c4sc(N)c(C#N)c34)c(C(F)(F)F)cc12)[C@H]1CCN(C(=O)c2ncc(C)s2)C1 (atropisomer, axis not shown) [Compound 919] | 0.1 to 1 | 0.1 to 1 | < 0.1 | < 0.1 | 0.1 to 1 | 0.1 to 1
CCN(c1nc(OC[C@@]23CCCN2C[C@H](F)C3)nc2c(F)c(-c3ccc(F)c4sc(N)c(C#N)c34)c(C(F)(F)F)cc12)[C@H]1CCN(C(=O)c2cccs2)C1 (atropisomer, axis not shown) [Compound 920] | 0.1 to 1 | 0.1 to 1 | < 0.1 | < 0.1 | 0.1 to 1 | 0.1 to 1
CCN(c1nc(OC[C@@]23CCCN2C[C@H](F)C3)nc2c(F)c(-c3ccc(F)c4sc(N)c(C#N)c34)c(C(F)(F)F)cc12)[C@H]1CCN(C(=O)N(C)C)[C@@H]1COC (atropisomer, axis not shown) [Compound 921] | 0.1 to 1 | 0.1 to 1 | < 0.1 | < 0.1 | 0.1 to 1 | 0.1 to 1
CCN(c1nc(OC[C@@]23CCCN2C[C@H](F)C3)nc2c(F)c(-c3ccc(F)c4sc(N)c(C#N)c34)c(C(F)(F)F)cc12)[C@H]1C[C@H](C)N(C(=O)[C@@H]2CCO2)C1 (atropisomer, axis not shown) [Compound 922] | ≤ 0.1 | ≤ 0.1 | < 0.1 | < 0.1 | ≤ 0.1 | 0.1 to 1
